Data as given in patent US20070213339A1 (Bayer Pharmaceuticals Corporation, priority 2004, published 2007).

Test system: Colo205 human colon carcinoma cell line
Test: In vitro tumor cell proliferation assay (MTS, CellTiter 96 Aqueous One Solution)
Assay type: cell-based
Conditions: COLO 205, Colo205 cells, 72 hours compound exposure, MTS absorbance at 490 nm, read-out: IC50 (concentration of test compound required to inhibit proliferation of 50% of the cells)
Summary of the method: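 Proliferation measured as MTS tetrazolium reduction (490 nm) after 72 h compound exposure at 37 °C. Cells plated at 2000 per well in serum-supplemented RPMI-1640; duplicate 5-point dilutions topping out at 10-20 μM. Percent inhibition versus untreated and cell-free wells, IC50 derived by linear regression.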

An IC50 of under 0.5 µM was found for `O=C(O)c1cn(-c2ccc(CN3CCCC3)c(F)c2)c2c(Cl)c(N3CCN(c4ccc(Cl)cc4)CC3)c(F)cc2c1=O` [Example 187, 8-chloro-7-[4-(4-chlorophenyl)-piperazine-1-yl]-6-fluoro-1-(3-fluoro-4-pyrrolidin-1-ylmethyl-phenyl)-4-oxo-1,4-dihydroquinoline-3-carboxylic acid] in this work.

An IC50 of under 0.5 µM was found for `N#Cc1cccnc1N1CCN(c2c(F)cc3c(=O)c(C(=O)O)cn(-c4ccc(CN5CCCC5)nc4)c3c2Cl)CC1` [Example 35, 8-chloro-7-[4-(3-cyanopyridin-2-yl)piperazin-1-yl]-6-fluoro-4-oxo-1-[6-(pyrrolidin-1-ylmethyl)pyridin-3-yl]-1,4-dihydroquinoline-3-carboxylic acid] in this work.

An IC50 of under 0.5 µM was found for `COc1c(N2CCN(c3cccc(Cl)c3)CC2)c(F)cc2c(=O)c(C(=O)O)cn(-c3ccc(CN(C)C)cc3)c12` [Example 98, 7-[4-(3-chlorophenyl)piperazin-1-yl]-1-{4-[(dimethylamino)methyl]phenyl}-6-fluoro-8-methoxy-4-oxo-1,4-dihydroquinoline-3-carboxylic acid] in this work.

An IC50 of 2 to 20 µM was found for `O=C(O)c1cn(-c2cccc(CN3CCCCC3)c2)c2c(Cl)c(N3CCN(c4ccccc4F)CC3)c(F)cc2c1=O` [Example 63, 8-chloro-6-fluoro-7-[4-(2-fluorophenyl)-piperazin-1-yl]-4-oxo-1-[3-(piperidin-1-ylmethyl)phenyl]-1,4-dihydroquinoline-3-carboxylic acid] in this work.

An IC50 of under 0.5 µM was found for `COC[C@@H]1CCCN1Cc1ccc(-n2cc(C(=O)O)c(=O)c3cc(F)c(N4CCN(c5ncccn5)CC4)c(Cl)c32)cc1` [Example 26, 8-chloro-6-fluoro-1-(4-{[(2S)-2-(methoxy-methyl)pyrrolidin-1-yl]methyl}phenyl)-4-oxo-7-(4-pyrimidin-2-ylpiperazin-1-yl)-1,4-dihydroquinoline-3-carboxylic acid] in this work.

An IC50 of under 0.5 µM was found for `COc1cc(CNC2CCC2)ccc1-n1cc(C(=O)O)c(=O)c2cc(F)c(N3CCN(c4ccc(F)cc4)CC3)c(Cl)c21` [Example 178, 8-chloro-1-(4-cyclobutylaminomethyl-2-methoxyphenyl)-6-fluoro-7-[4-(4-fluorophenyl)-piperazine-1-yl]-4-oxo-1,4-dihydroquinoline-3-carboxylic acid] in this work.

An IC50 of under 0.5 µM was found for `N#Cc1ccccc1N1CCN(c2c(F)cc3c(=O)c(C(=O)O)cn(-c4ccc(CN5CCCC5)cc4F)c3c2Cl)CC1` [Example 39, 8-chloro-7-[4-(2-cyanophenyl)piperazin-1-yl]-6-fluoro-1-[2-fluoro-4-(pyrrolidin-1-ylmethyl)phenyl]-4-oxo-1,4-dihydroquinoline-3-carboxylic acid] in this work.

An IC50 of under 0.5 µM was found for `COc1cc(CN2CCCC2)ccc1-n1cc(C(=O)O)c(=O)c2cc(F)c(N3CCN(c4ccc(F)cc4)CC3)c(Cl)c21` [Example 176, 8-chloro-6-fluoro-7-[4-(4-fluorophenyl)-piperazine-1-yl]-1-(2-methoxy-4-pyrrolidin-1-ylmethyl-phenyl)-4-oxo-1,4-dihydroquinoline-3-carboxylic acid] in this work.

An IC50 of under 0.5 µM was found for `O=C(O)c1cn(-c2ccc(CN3CCCC3)cc2)c2c(OC(F)(F)Cl)c(N3CCN(c4ccc(Cl)cc4)CC3)c(F)cc2c1=O` [Example 148, 8-[chloro(difluoro)methoxy]-7-[4-(4-chlorophenyl)piperazin-1-yl]-6-fluoro-4-oxo-1-[4-(pyrrolidin-1-ylmethyl)phenyl]-1,4-dihydroquinoline-3-carboxylic acid] in this work.

An IC50 of 2 to 20 µM was found for `CON(C)Cc1ccc(-n2cc(C(=O)O)c(=O)c3cc(F)c(N4CCN(c5ccc(F)cc5)CC4)c(Cl)c32)cc1` [Example 51, 8-chloro-6-fluoro-7-[4-(4-fluorophenyl)-piperazin-1-yl]-1-(4-{[methoxy(methyl)amino]methyl}phenyl)-4-oxo-1,4-dihydroquinoline-3-carboxylic acid] in this work.

An IC50 of under 0.5 µM was found for `CCN(CC)Cc1ccc(-n2cc(C(=O)O)c(=O)c3cc(F)c(N4CCN(c5ccccc5C#N)CC4)c(OC(F)(F)Cl)c32)cc1` [Example 162, 8-[chloro(difluoro)methoxy]-7-[4-(2-cyanophenyl)piperazin-1-yl]-1-{4-[(diethylamino)methyl]phenyl}-6-fluoro-4-oxo-1,4-dihydroquinoline-3-carboxylic acid] in this work.

An IC50 of under 0.5 µM was found for `CN(Cc1ccc(-n2cc(C(=O)O)c(=O)c3cc(F)c(N4CCN(c5ccccn5)CC4)c(Cl)c32)cc1)C1CCCCC1` [Example 61, 8-chloro-1-(4-{[cyclohexyl(methyl)amino]-methyl}phenyl)-6-fluoro-4-oxo-7-(4-pyridin-2-ylpiperazin-1-yl)-1,4-dihydroquinoline-3-carboxylic acid] in this work.

An IC50 of 0.5 to 2 µM was found for `COc1c(N2CCN(c3ccc(C(C)=O)cc3)CC2)c(F)cc2c(=O)c(C(=O)O)cn(-c3ccc(CN4CCCC4)cc3)c12` [Example 78, 7-[4-(4-acetylphenyl)piperazin-1-yl]-6-fluoro-8-methoxy-4-oxo-1-[4-(pyrrolidin-1-ylmethyl)phenyl]-1,4-dihydroquinoline-3-carboxylic acid] in this work.

An IC50 of 0.5 to 2 µM was found for `COc1c(N2CCN(c3ccccc3F)CC2)c(F)cc2c(=O)c(C(=O)O)cn(-c3ccc(CN(C)C)cc3)c12` [Example 94, 1-{4-[(dimethylamino)methyl]phenyl}-6-fluoro-7-[4-(2-fluorophenyl)piperazin-1-yl]-8-methoxy-4-oxo-1,4-dihydroquinoline-3-carboxylic acid] in this work.

An IC50 of under 0.5 µM was found for `O=C(O)c1cn(-c2ccc(CN3CCCC3)cc2)c2c(OC(F)(F)F)c(N3CCN(c4ccccn4)CC3)c(F)cc2c1=O` [Example 124, 6-fluoro-4-oxo-7-(4-pyridin-2-yl-piperazin-1-yl)-1-[4-(pyrrolidin-1-ylmethyl)phenyl]-8-(trifluoromethoxy)-1,4-dihydroquinoline-3-carboxylic acid] in this work.

An IC50 of 2 to 20 µM was found for `CON(C)Cc1ccc(-n2cc(C(=O)O)c(=O)c3cc(F)c(N4CCN(c5ncccc5C#N)CC4)c(Cl)c32)cc1` [Example 54, 8-chloro-7-[4-(3-cyanopyridin-2-yl)piperazin-1-yl]-6-fluoro-1-(4-{[methoxy(methyl)amino]methyl}phenyl)-4-oxo-1,4-dihydroquinoline-3-carboxylic acid] in this work.

An IC50 of under 0.5 µM was found for `COC[C@@H]1CCCN1Cc1ccc(-n2cc(C(=O)O)c(=O)c3cc(F)c(N4CCN(c5ccccn5)CC4)c(Cl)c32)cc1` [Example 24, 8-chloro-6-fluoro-1-(4-{[(2S)-2-(methoxy-methyl)pyrrolidin-1-yl]methyl}phenyl)-4-oxo-7-(4-pyridin-2-ylpiperazin-1-yl)-1,4-dihydroquinoline-3-carboxylic acid] in this work.

An IC50 of under 0.5 µM was found for `Cc1cccc(N2CCN(c3c(F)cc4c(=O)c(C(=O)O)cn(-c5ccc(CN(C)C)cc5)c4c3OC(F)(F)F)CC2)n1` [Example 127, 1-{4-[(dimethylamino)methyl]phenyl}-6-fluoro-7-[4-(6-methylpyridin-2-yl)piperazin-1-yl]-4-oxo-8-(trifluoromethoxy)-1,4-dihydroquinoline-3-carboxylic acid] in this work.

An IC50 of 0.5 to 2 µM was found for `CCN(CC)Cc1ccc(-n2cc(C(=O)O)c(=O)c3cc(F)c(N4CCN(c5ccccc5[N+](=O)[O-])CC4)c(OC)c32)cc1` [Example 107, 1-{4-[(diethylamino)methyl]phenyl}-6-fluoro-8-methoxy-7-[4-(2-nitrophenyl)piperazin-1-yl]-4-oxo-1,4-dihydroquinoline-3-carboxylic acid] in this work.
